# Values quoted from earlier work as cited in paper PMC10224173 (Viruses, 2023).
# Target: ZIKV NS2B-NS3 protease (Zika virus, UniProt A0A024B7W1)
# Conditions: Table 2; active site inhibitor; ref [43]
# Chain of ZIKV NS2B-NS3 protease (A0A024B7W1 1503-1680): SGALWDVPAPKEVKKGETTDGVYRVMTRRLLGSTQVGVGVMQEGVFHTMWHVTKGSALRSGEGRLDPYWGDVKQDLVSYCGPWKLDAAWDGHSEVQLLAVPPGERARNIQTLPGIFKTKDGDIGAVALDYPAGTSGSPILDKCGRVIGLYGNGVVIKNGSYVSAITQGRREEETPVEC
# Chain of ZIKV NS2B-NS3 protease (A0A024B7W1 1419-1472): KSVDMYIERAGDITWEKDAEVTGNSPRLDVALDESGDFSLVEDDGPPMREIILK
compound,measurement,value
CC(C)C[C@H]1C(=O)N2CCC[C@H]2[C@]2(O)O[C@](NC(=O)[C@@H]3C=C4c5cccc6[nH]c(Br)c(c56)C[C@H]4N(C)C3)(C(C)C)C(=O)N12 [Bromocriptine],IC50,21.6 µM
